{
  "source": "patent US8414660B2",
  "about": "“Haloferax volcanii laccase and variants and fragments thereof” (University of Florida Research Foundation, Inc., priority 2009, dated 2013)",
  "molecules": {"B1": {"name": "CotA, Bacillus subtilis: Bacillus subtilis spore coat protein A with laccase activity (Martins et al., 2002) (protein, UniProt P07788 1-513, looked up)", "Laccase": "MTLEKFVDALPIPDTLKPVQQSKEKTYYEVTMEECTHQLHRDLPPTRLWGYNGLFPGPTIEVKRNENVYVKWMNNLPSTHFLPIDHTIHHSDSQHEEPEVKTVVHLHGGVTPDDSDGYPEAWFSKDFEQTGPYFKREVYHYPNQQRGAILWYHDHAMALTRLNVYAGLVGAYIIHDPKEKRLKLPSDEYDVPLLITDRTINEDGSLFYPSAPENPSPSLPNPSIVPAFCGETILVNGKVWPYLEVEPRKYRFRVINASNTRTYNLSLDNGGDFIQIGSDGGLLPRSVKLNSFSLAPAERYDIIIDFTAYEGESIILANSAGCGGDVNPETDANIMQFRVTKPLAQKDESRKPKYLASYPSVQHERIQNIRTLKLAGTQDEYGRPVLLLNNKRWHDPVTETPKVGTTEIWSIINPTRGTHPIHLHLVSFRVLDRRPFDIARYQESGELSYTGPAVPPPPSEKGWKDTIQAHAGEVLRIAATFGPYSGRYVWHCHILEHEDYDMMRPMDITDPHK"}, "B2": {"name": "LccA-StrepII: LccA with a C-terminal StrepII tag (-WSHPQFEK), purified from Hfx. volcanii SB01 (protein, UniProt D4GPK6 32-579, looked up)", "Laccase": "ASPTLEKFVQPLPIPSVREPDGQRDGADAYEIAVTEFTQQLHPDLPETTVWGFDGSYPGPTIEADAGSPVHVRFDNSGLPSEHLFPVDDRLGGTTAENHPGYDGPVPEVRTVTHFHGLELDPANDGQSDMWTSPGGVEGPRFDSAWQELPMEQGRTTSTYHDHTLGITRLNAYAGLLGLYSITTDAERELGLPSGDYDIPLLLQDKEFNDDGSLHYPEEFVSAFLGDTAVVNGAVWPYVEVEPRRYRFRILNGANHRSFDLQLESESGSGVPTMYQFAPGHGFLESVVPIGPNGDLDSLLLTPFERGELVVDFSDHAGETLTLANGADMGPELTDLVEFRVSDPSTPPEDASADPTSLSLPTPASYDESDARVTREMTLGTEVRNGLITHTLNGHVFGDEDAPVYPQLGATEIWELQNESGGRHPIHLHLVTFRVIGRGPDGTQPPDPNELGPKDTVRVDPGERVRILVTFEGYTGQFPWHCHMLEHEDNKMMIPFVVENPVADYANEENVVDATGLTDAVGDWRNETLETEVLLEVIDQWRSGDEVA", "modifications": "C-terminal StrepII tag"}},
  "key": {"[1]": {"conditions": "literature; cited from earlier work"}, "[2]": {"biological_target": "T1, LccA isolated from Hfx. volcanii SB01 (Haloferax volcanii, UniProt D4GPK6)", "T1 construct": "made in house; host or cells: Haloferax volcanii SB01 (H26 carrying plasmid pJAM822), secreted into culture broth", "T1 sequence (D4GPK6 32-579)": "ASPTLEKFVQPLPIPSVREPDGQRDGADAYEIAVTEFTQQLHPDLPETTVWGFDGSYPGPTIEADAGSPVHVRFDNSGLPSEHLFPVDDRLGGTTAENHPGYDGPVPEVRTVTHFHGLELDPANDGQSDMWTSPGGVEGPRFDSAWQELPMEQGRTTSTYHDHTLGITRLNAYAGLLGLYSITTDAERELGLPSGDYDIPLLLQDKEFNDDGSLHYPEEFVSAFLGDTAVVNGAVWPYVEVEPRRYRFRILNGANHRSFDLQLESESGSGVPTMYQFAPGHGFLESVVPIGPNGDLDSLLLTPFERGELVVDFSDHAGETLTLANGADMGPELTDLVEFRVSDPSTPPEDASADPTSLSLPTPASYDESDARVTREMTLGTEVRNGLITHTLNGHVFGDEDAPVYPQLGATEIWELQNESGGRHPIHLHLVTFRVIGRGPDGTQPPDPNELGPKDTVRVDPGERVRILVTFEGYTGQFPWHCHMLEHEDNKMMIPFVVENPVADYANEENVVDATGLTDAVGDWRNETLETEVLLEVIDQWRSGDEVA", "assay": "biochemical", "conditions": "for Inhibition of observed LccA activity: 0.1 to 1 mM; for inhibition at 10000 µM: read-out: Inhibition / reduction in LccA activity"}, "[3]": {"conditions": "comparator laccase-like enzymes, literature, cited from earlier work"}, "[4]": {"conditions": "comparator laccase-like enzymes, literature, cited from earlier work", "remark": "listed apart in the source"}, "[5]": {"assay": "Laccase activity assay, oxidation of SGZ (syringaldazine)", "protocol": "LccA (51 μg·ml^−1) activity was assayed at different temperatures (22° to 70° C.) in T buffer with 185 mM NaCl using SGZ (1 mM) as the substrate. […] LccA activity was assayed with SGZ (●) from pH 6 to 11 and with ABTS (◯) from pH 3 to 8 at 45° C. using following buffers: 100 mM sodium acetate for pH 3 to 6, 25 mM Tris-HCl for pH 7 to 10, and 25 mM glycine-NaOH for pH 11. Activity is expressed as percent relative to oxidation of ABTS at pH 6. […] Purified enzyme (50.6 μg·ml^−1) was pre-incubated in T buffer supplemented with 185 mM NaCl at temperatures from 37° to 70° C. for up to 60 h, as indicated. […] Activity is presented as percent relative to incubation on ice (37° C. (●), 45° C. (▪), 50° C. (▴), 55° C. (♦), 60° C. (◯), 65° C. (□) and 70° C. (Δ)); FIG. 6E-Salt tolerance of LccA protein. Purified enzyme (16.5 μg·ml^−1) was pre-incubated for 30 min in T buffer at pH 8.4 supplemented with different concentrations of NaCl (0 to 1.4 M) as indicated. Samples were diluted to a final concentration 4.12 μg·ml^−1 protein and 185 mM NaCl in T buffer and assayed for SGZ oxidizing activity under standard conditions. Residual activity was calculated as percent relative to incubation at 185 mM NaCl. […] Enzyme (7.5 μg·ml^−1) was incubated in T buffer with 185 mM NaCl in the presence and absence of 25% (v/v) solvent (DMSO, DMF, ethanol and methanol) at room temperature for 90 min (white bar), 3 h (grey bar) and 24 h (black bar). […] Activity is calculated as percent relative to incubation without solvent.\nEnzyme activity was determined by change in absorbance, in triplicate, by UV/Visible-spectroscopy using a BioTek Synergy HT multi-detection microplate reader with a 96-well plate. Oxidation of substrate was monitored by absorbance increase (ABTS at 420 nm with ε=36,000 M^−1 cm^−1; SGZ at 526 nm with ε=65,000 M^−1 cm^−1; DMP at 468 nm with ε=49,000 M^−1 cm^−1; guaiacol at 436 nm with ε=26,600 M^−1 cm^−1; ferrous ammonium sulfate at 315 nm with ε=2,200 M^−1 cm^−1) or decrease (bilirubin at 440 nm with ε=56,300 M^−1 cm^−1). Standard assay conditions were 185 mM NaCl at 45° C. with the following buffers and substrate concentrations: 100 mM sodium acetate buffer at pH 6.0 for ABTS (at 5 mM), DMP (at 2 mM) and guaiacol (at 5 mM); 25 mM Tris-HCl buffer at pH 8.4 for SGZ (at 1 mM); and 200 mM Tris-HCl buffer at pH 8.4 for bilirubin (0.45 mM). Copper sulfate (1 mM) was included for assay of DMP oxidation. Oxidation of ferrous ammonium sulphate (1 mM) was monitored at 315 nm (ε=2,200 M^−1 cm^−1) with and without salt (185 mM NaCl) in 100 mM MES (morpholineethanesulfonic acid) buffer at pH 5 as well as 25 mM Tris-HCl buffer at pH 7.0 and 8.4. One unit of enzyme activity is defined as the amount of enzyme that oxidizes 1 μmol of substrate per min at standard conditions. […] Kinetic parameters (Km, Vmax, and kcat) were determined using the Michaelis-Menten equation. […] All assays and protein purifications were performed at least in triplicate.\nTo further evaluate the catalytic properties of LccA, the temperature, pH and salt optima of the purified enzyme were determined using SGZ and/or ABTS as substrates."}, "[6]": {"conditions": "compound 1 mM, 10 min at 45° C."}, "[7]": {"conditions": "compound 10 mM, 10 min at 45° C."}, "[8]": {"conditions": "compound 0.1 mM, 10 min at 45° C."}},
  "note": "Values joined by “and” are separate entries in the source; they are usually repeats but may differ in a detail not shown here. Equal entries are not always repeated. Where two headings read alike, the source gives them in different places.",
  "data": [
    {"molecule": "McoA [reference compound]", "values": [
      {"measurement": "Temperature optimum", "setting": "[1]", "value": 70, "unit": "°C"}
    ]},
    {"molecule": "c1ccc(-c2ccccn2)nc1", "note": "[2,2-Dipyridyl]", "values": [
      {"measurement": "Inhibition / reduction in LccA activity", "setting": "[2]; 10 mM", "value": 25, "unit": "%"},
      {"measurement": "Relative Activity of LccA", "setting": "[2]; [6]", "value": "86.6 ± 3.3", "unit": "%"},
      {"measurement": "Relative Activity of LccA", "setting": "[2]; [7]", "value": "75.2 ± 2.3", "unit": "%"}
    ]},
    {"molecule": "O=C(O)CN(CCN(CC(=O)O)CC(=O)O)CC(=O)O", "note": "[EDTA]", "values": [
      {"measurement": "Inhibitory activity toward LccA", "setting": "[2]", "value": "no inhibitory activity"},
      {"measurement": "Relative Activity of LccA", "setting": "[2]", "value": "100.6 ± 1.8% and 106.3 ± 5.8% and 123.6 ± 3.2% and 123.7 ± 3.0%"}
    ]},
    {"molecule": "N[C@@H](CS)C(=O)O", "note": "[L-Cysteine]", "values": [
      {"measurement": "Inhibition of observed LccA activity", "setting": "[2]", "value": "strong inhibitors"},
      {"measurement": "Relative Activity of LccA", "setting": "[2]; [8]", "value": "83.0 ± 3.7", "unit": "%"},
      {"measurement": "Relative Activity of LccA", "setting": "[2]; [6]", "value": "u.d.^c"}
    ]},
    {"molecule": "c1cnc2c(c1)ccc1cccnc12", "note": "[1,10-Phenanthroline]", "values": [
      {"measurement": "inhibition at 10000 µM", "setting": "[2]; 10 mM", "value": 90, "unit": "%"},
      {"measurement": "Relative Activity of LccA", "setting": "[2]; [6]", "value": "85.3 ± 3.4", "unit": "%"},
      {"measurement": "Relative Activity of LccA", "setting": "[2]; [7]", "value": "10.9 ± 3.9", "unit": "%"}
    ]},
    {"molecule": "NC(N)=S", "note": "[Thiourea]", "values": [
      {"measurement": "inhibition at 10000 µM", "setting": "[2]; 10 mM", "value": 90, "unit": "%"},
      {"measurement": "Relative Activity of LccA", "setting": "[2]; [6]", "value": "96.5 ± 3.9", "unit": "%"},
      {"measurement": "Relative Activity of LccA", "setting": "[2]; [7]", "value": "9.5 ± 1.3", "unit": "%"}
    ]},
    {"molecule": "O[C@@H](CS)[C@@H](O)CS", "note": "(racemic) [DL-Dithiothretol]", "values": [
      {"measurement": "Inhibition of observed LccA activity", "setting": "[2]", "value": "strong inhibitors"},
      {"measurement": "Relative Activity of LccA", "setting": "[2]; compound 0.01 mM, 10 min at 45° C.", "value": "90.5 ± 5.5", "unit": "%"},
      {"measurement": "Relative Activity of LccA", "setting": "[2]; [8]", "value": "u.d."},
      {"measurement": "Relative Activity of LccA", "setting": "[2]; [6]", "value": "u.d."}
    ]},
    {"molecule": "B1", "values": [
      {"measurement": "Temperature optimum", "setting": "[1]", "value": 75, "unit": "°C"},
      {"measurement": "kcat, ABTS", "setting": "[3]", "value": 16.8, "unit": "s⁻¹"},
      {"measurement": "Km", "setting": "[3]; read-out: Km, ABTS", "value": 106, "unit": "µM"},
      {"measurement": "kcat, SGZ", "setting": "[4]", "value": 3.7, "unit": "s⁻¹"},
      {"measurement": "Km", "setting": "[4]; read-out: Km, SGZ", "value": 26, "unit": "µM"}
    ]},
    {"molecule": "B2", "values": [
      {"measurement": "Specific activity lower than US02 purified LccA", "setting": "[5]; SGZ oxidation", "value": "over 20 fold"},
      {"measurement": "Specific activity, SGZ oxidation", "setting": "[5]; purified from culture broth of Hfx. volcanii SB01 (C-terminal StrepII tag), final MonoQ 10/10 pH 8.4", "value": 1.3, "unit": "U·mg^−1"}
    ]}
  ]
}
